Experimental data as given in publication PMC7932537, “Quantitative profiling of protease specificity” (PLoS Computational Biology, 2021).

Legend:
[1] = tested on: MMP-2; experiment: N-terminomic (TMT) analysis of MMP-treated HEK293 secretome: isotopic enrichment of novel N-termini; type: biochemical, human; conditions: for isotopic enrichment (log2(ratio)): MMP2 cleavages in HEK293 cell proteins, determined by LC-MS/MS, novel N-termini, sections log2(ratio) >3σ, 2σ-3σ, 1σ-2σ, RP above 4.5
Description: (§1) This was done to achieve a reasonable compromise between the false positive and false negative rates based on the statistical model developed by the authors. […] (See Methods for details).
(§2) HEK293 cells were seeded in 150-mm tissue culture dishes (Corning) and grown to confluence. The confluent cultures were washed with PBS several times to remove serum proteins and kept in serum-free DMEM supplemented with 1 μM GM6001 for 72 hours at 37 C, 5% CO2. The conditioned media was centrifuged at 10,000 x g for 30 minutes at 4 C and concentrated ~100-fold using Centricon Plus-70 (AMD Millipore) 3-kDa m.w. cut-off ultrafilter, and the buffer was exchanged to 50 mM HEPES pH 7.0 containing 150 mM NaCl and 10 mM CaCl2 (Reaction Buffer) using a PD-10 desalting column (GE Healthcare). Aliquots containing 240 μg total protein were incubated at 37 C in the presence of 750 nM MMP2 or 9 or the Reaction Buffer alone for 2 hours. Each reaction was carried out in duplicate. The reactions were stopped by addition of 20 mM EDTA and subjected to denaturation/reduction (4M Urea and 10 mM TCEP, 1 h, 22°C) and alkylation (20 mM iodoacetamide, 30 min, 22°C, in dark). […] The TMT-labeled samples were pooled together, and subjected to TCA precipitation (20% TCA, 16 h, 4°C). Each pellet was washed with -20°C acetone, recovered in 50 mM Tris-HCl pH 8.0, and then digested with trypsin/Lys-C (Promega) for 16 h at 37°C. Digestions were stopped with 0.2% TFA and centrifuged to remove insoluble material. The supernatants were then desalted using Sep-Pak C18 cartridge (50 mg), and then lyophilized.
(§3) Dried pooled sample was reconstituted in 20 mM ammonium formate pH ~10 and fractionated using a Waters Acquity BEH C18 column (2.1x 15 cm, 1.7 μm pore size) mounted on an M-Class Ultra Performance Liquid Chromatography (UPLC) system (Waters). […] A total of 32 fractions were collected and pooled in a non-contiguous manner into 16 total fractions. Pooled fractions were dried to completeness in a SpeedVac concentrator prior to mass spectrometry analysis.
(§4) Dried peptide fractions were reconstituted with 2% ACN-0.1% FA and analyzed by LC-MS/MS using a Proxeon EASY nanoLC system (Thermo Fisher Scientific) coupled to a Q-Exactive Plus mass spectrometer (Thermo Fisher Scientific). […] The mass spectrometer was operated in positive data-dependent acquisition mode. MS1 spectra were measured with a resolution of 70,000 (AGC target: 1e6; mass range: 350–1700 m/z).
(§5) The false discovery rate (FDR) filter for spectrum and protein identification was set to 1%. Carbamidomethylation of cysteines was searched as a fixed modification, while oxidation of methionines and N-terminal acetylation were searched as variable modifications. Enzyme was set to trypsin in a semispecific mode and a maximum of two missed cleavages was allowed for searching. To obtain quantification of the TMT-labeled N-termini, two independent searches were performed–one with TMT10plex MS2 N-terminal reporter quantification and the other for quantification of N-terminal and lysine sidechain.

[2] = tested on: MMP-9; experiment: as above; type: biochemical, human; conditions: for isotopic enrichment (log2(ratio)) (acc.to MMP9): HEK293 proteins; for isotopic enrichment (log2(ratio)): MMP9 cleavages in HEK293 cell proteins, determined by LC-MS/MS, log2(ratio) range (>3σ, 2σ-3σ, 1σ-2σ)
Description: as §1, §2, §3, §4, §5

[3] = MS detected cleavage sequence, HEK293 proteins, unique part of MMP2 selectome
[4] = MS detected cleavage sequence, unique part of MMP2 selectome
[5] = MMP2 cleaved HEK293 proteins, common set of MMP2-9 selectome, LC-MS/MS
[6] = MS detected cleavage sequence, HEK293 proteins, common MMP2-9 selectome
[7] = MMP9, common set of MMP2-9 selectome, LC-MS/MS
[8] = MS detected cleavage sequence, common MMP2-9 selectome

Substance | isotopic enrichment (log2(ratio)) (acc.to MMP2) [1, 3] | isotopic enrichment (log2(ratio)) (acc.to MMP9) [2, 4] | isotopic enrichment (log2(ratio)) (acc.to MMP2) [1, 5] | isotopic enrichment (log2(ratio)) (acc.to MMP2) [1, 6] | isotopic enrichment (log2(ratio)) (acc.to MMP9) [2, 7] | isotopic enrichment (log2(ratio)) [2] | isotopic enrichment (log2(ratio)) (acc.to MMP9) [2, 8] | isotopic enrichment (log2(ratio)) [1]
GRSAP-LAAGCP | 3.5097 log2(ratio) | 3.246 log2(ratio) |  |  |  |  |  | 
GRTLG-LYGKDQ |  |  | 2.467 | 2.467 log2(ratio) | 3.7845 | 3.7845 | 3.7845 log2(ratio) | 
GSPDA-LQNPCY |  |  |  | 0.926 log2(ratio) |  | 3.536 | 3.536 log2(ratio) | 
GYIGT-YCGQPV | 2.548 log2(ratio) | 2.478 log2(ratio) |  |  |  |  |  | 
HLNRG-FHQEVF | 1.531 log2(ratio) | 1.782 log2(ratio) |  |  |  |  |  | 
HLVRN-IQLEQP |  |  | 3.263 | 3.263 log2(ratio) | 3.981 | 3.981 | 3.981 log2(ratio) | 
IFLRE-LISNAS |  |  | 1.176 | 1.176 log2(ratio) | 1.628 | 1.628 | 1.628 log2(ratio) | 
ISPGM-IKDCGA |  |  | 1.183 | 1.183 log2(ratio) | 2.036 | 2.036 | 2.036 log2(ratio) | 
KRIAN-LQTDLS |  |  | 1.918 | 1.918 log2(ratio) | 1.791 | 1.791 | 1.791 log2(ratio) | 
KYIGN-MHGNEA |  |  | 1.124 |  | 1.07 |  |  | 1.124 log2(ratio)
LDVGG-LQETDK |  |  | 3.076 | 3.076 log2(ratio) | 1.718 | 1.718 | 1.718 log2(ratio) | 
LFIGG-LSFETT | 2.3505 log2(ratio) | 1.4957 log2(ratio) |  |  |  |  |  | 
LPAMP-MQGGAQ |  |  | 3.329 | 3.329 log2(ratio) | 3.876 | 3.876 | 3.876 log2(ratio) | 
MEPVA-HFGLGK |  |  |  | 0.3448 log2(ratio) |  | 1.731 | 1.731 log2(ratio) | 
MPMF-IVNTNV |  |  |  | 0.8319 log2(ratio) |  | 1.66 | 1.66 log2(ratio) | 
MSPQL-LYDAAP |  |  |  | 0.5656 log2(ratio) |  | 1.465 | 1.465 log2(ratio) | 
MVPRA-VYLPNC |  |  | 1.989 | 1.989 log2(ratio) | 2.491 | 2.491 | 2.491 log2(ratio) | 
NFIQS-IISTVE |  | 1.111 log2(ratio) |  |  |  |  |  | 0.903 log2(ratio)
